Converted amounts (≈) assume the structure as drawn. Where a SMILES comes first, the peptide text is derived from it.
What was measured:
[1] = HPTS assay of ionophoric activity in phospholipid vesicles; format: biochemical; details: Table S1, HPTS assay
Protocol: The membrane activity of 1, 2, Cu[1]Cl2 and Cu[2]Cl2 was assessed in phospholipid vesicle membranes using 8-hydroxypyrene-1,3,6-trisulfonate (HPTS) assays. HPTS assays can show ionophoric activity that occurs via any combination of M^+/H^+ antiport, X^–/OH^– antiport, M^+/OH^– symport and X^–/H^+ symport.
The HPTS assays of 1, 2, Cu[1]Cl2 and Cu[2]Cl2 used 1 : 4 cholesterol : egg yolk phosphatidylcholine (EYPC) vesicles in MOPS buffer (pH 7.4) with 100 mM of an appropriate salt (e.g. KCl, KBr, NaCl), following previously reported procedures.[16] The resulting normalised data were fitted to pseudo first-order rate equations as an approximation (see the ESI ^†).[32] Although the change in fluorescence after the “burst phase” is likely to arise from multiple processes, including inter-vesicle transfer of foldamers,[33] this fitting allows the relative effectiveness of each compound to be compared.
CuCl2 was added at 2 min, followed by addition of 2.2 eq. EDTA at 3 min.
5.1 Preparation of large unilamellar vesicles for HPTS assays
The HPTS assays of 1, 2, Cu[1]Cl2 and Cu[2]Cl2 used 1:4 cholesterol:egg yolk phosphatidylcholine (EYPC) vesicles in MOPS buffer (pH 7.4) with 100 mM of an appropriate salt (e.g. KCl, KBr, NaCl).5 Aliquots of 1, 2, Cu[1]Cl2 or Cu[2]Cl2 dissolved in methanol were mixed with the vesicle suspensions for 60 s before adding a base pulse to change the external pH to 8.4.6 The resulting change in HPTS fluorescence was followed for 6 min, then Triton X-100 was added at 7 min to lyse the vesicles […]. Each assay was repeated three times on new vesicles. The resulting normalized data were fitted to pseudo first-order rate equations as an approximation (see the ESI), similar to the procedure of Regen and co-workers.7 Although the change in fluorescence after the “burst phase” is likely to arise from multiple processes, including inter-vesicle transfer of foldamers,8 this fitting allows the relative effectiveness of each compound to be compared.
Egg yolk phosphatidylcholine (EYPC, 64 μmol) and cholesterol (16 μmol) were dissolved in 2 mL chloroform (spectroscopic grade). The solvent was removed under reduced pressure resulting in a thin film of lipid on the inside wall of the round bottom flask, which was dried further under vacuum for 2 hours. 1.2 mL of a trisodium 8-hydroxypyrene-1,3,6-trisulfonate (HPTS, 100 mM, pH = 7.4) dye in (3-(N-morpholino) propanesulfonic acid) buffer (20 mM MOPS, 100 mM MX (M = K or Na, X = Cl, Br or NO3− adjusted to pH 7.4 using NaOH) were added to the lipid film. Afterwards, the thin film was detached from the sides of the flask by vortex mixing. The resulting lipid suspension was then extruded 19 times through an 800 nm polycarbonate membrane in an Avestin Liposofast extruder to give a suspension of 800 nm large unilamellar vesicles. Unencapsulated HPTS dye was removed by gel permeation chromatography on PD-10 SEC columns (Sephadex G-25). Hereby 1 mL of the 800 nm vesicle suspension was diluted to 2.5 mL with 20 mM MOPS buffer solution and loaded onto the GPC column. The suspension run onto the column, followed by 3.5 mL of 20 mM MOPS buffer, which were collected, giving a stock vesicle solution of 3.5 mL (final concentration of lipids = 15.23 mM). This solution of vesicles was used directly in the HPTS experiments.
5.2 Procedure for HPTS assays
100 μL of the vesicle stock solution was diluted to 2 mL with 20 mM MOPS buffer (final lipid concentration in cuvette 0.762 mM). To this vesicle suspension was then added 20 μL of the principle compound in methanol (1 mM or 0.6 mM for Cu[2]Cl2) and the cuvette was equipped with a stirrer bar. The cuvette was […]

Solubility = format: physicochemical; details: under the haemolysis assay conditions (blood diluted with PBS, compound added from DMSO)
From the text: Mixing 1 or 2 with CuCl2 or CuCl provided green or blue complexes respectively. […] The blue complexes from the addition of CuCl gave very broad NMR spectra even after preparing fresh samples, which was ascribed to in situ oxidation of Cu(I); Cu(I)(TPA) complexes are very efficient one electron donors and will rapidly reduce alkyl halides[27] and oxygen.[28] Furthermore these blue products gave green solids when dried (see the ESI, Fig. S2 ^†).
Although alamethicin is a very active channel former, its use in the clinic is hampered by its high haemolytic activity.[52] […] It is known that the haemolytic activity of amphipathic peptides, including alamethicin, decreases substantially on a reduction of peptide hydrophobicity and hydrophobic moment.[56]

In the case of CC(C)(NC(=O)C(C)(C)NC(=O)C(C)(C)NC(=O)C(C)(C)NC(=O)C(C)(C)n1cc(CN(Cc2ccccn2)Cc2ccccn2)nn1)C(=O)NC(C)(C)C(=O)NC(C)(C)C(=O)NC(C)(C)C(=O)OCC[Si](C)(C)C [foldamer 2] (HELM PEPTIDE1{[CC(C)(C(=O)[*:2])n1cc(CN(Cc2ccccn2)Cc2ccccn2)nn1].[Aib].[Aib].[Aib].[Aib].[Aib].[Aib].[Aib].[C[Si](C)(C)CCO[*:1]]}$$$$V2.0), the “Apparent observed rate constant kobs, KBr” value ([1]; 100 mM KBr, compound 10 µM) is reported as 4.0 10−3 s−1, the “Apparent observed rate constant kobs, KCl” value ([1]; 100 mM KCl, compound 10 µM) is reported as 3.3 10−3 s−1 and the “Apparent observed rate constant kobs, KNO3” value ([1]; 100 mM KNO3, compound 10 µM) is reported as 3.2 10−3 s−1. For the same molecule, the “Apparent observed rate constant kobs, NaCl” value ([1]; 100 mM NaCl, compound 10 µM, methanol control 1 × 10−3 s−1) was 4.6 10−3 s−1 and the solubility limit (Solubility) was 20 µM (≈ 21.2 µg/mL).

Source: publication PMC7481839, “Switchable foldamer ion channels with antibacterial activity” (Chemical Science, 2020)
